Results: ChEMBL document CHEMBL2046380, “Synthesis and structure-activity relationship of disubstituted benzamides as a novel class of antimalarial agents” (Bioorg Med Chem Lett, 2012)

How the values were obtained:
Raji = experiment: Cytotoxicity against human Raji cells after 72 hrs by […] CellTiterGlo reagent assay; format: cell-based
Plasmodium falciparum [1] = experiment: Antimalarial activity against […] incubated for 72 hrs by DNA staining based MARK1 growth inhibition assay; format: functional, organism-based
Plasmodium falciparum [2] = experiment: Antimalarial activity against chloroquine-sensitive Plasmodium falciparum 3D7 incubated for 72 hrs by DNA staining based MAR3D7 growth inhibition assay; format: functional, organism-based; settings: 3D7, 72 h
HepG2 = experiment: Cytotoxicity against human HepG2 cells after 72 hrs by […] CellTiterGlo reagent assay; format: cell-based; settings: HepG2, 72 h
HEK293 = experiment: Cytotoxicity against human HEK293 cells after 72 hrs by […] CellTiterGlo reagent assay; format: cell-based; settings: HEK293, 72 h
BJ = experiment: Cytotoxicity against human BJ cells after 72 hrs by […] CellTiterGlo reagent assay; format: cell-based

CCOC(=O)CCCCCOc1cccc(CN(C(=O)c2ccc(-c3cc4ccccc4n3S(=O)(=O)c3ccccc3)cc2)C(C)C)c1
EC50 (Raji): > 26 µM
EC50 (Plasmodium falciparum [1]): > 15 µM
EC50 (Plasmodium falciparum [2]): > 15 µM
EC50 (HepG2): > 26 µM
EC50 (HEK293): > 26 µM
EC50 (BJ): > 26 µM
